Reference: patent US4122034A, “Antimicrobial compositions” (Schering Corporation, priority 1975, dated 1978)
Values after ≈ are worked out from the molar mass of the structure shown.

Tests used:
[1] = system: Candida albicans; assay: In vitro Anti-Candida activity, dilutions in Sabouraud's Dextrose Agar (Table III); type: cell-based; settings: 48 h
Procedure: (§1) All the tests were carried out and (when necessary) scored under standard conditions. "MIC" means "minimum inhibitory concentration."
In vitro Anti-Candida Activity of 2-aminoalkyl-3-phenyl-
indoles of the formula I. Dilutions in Sabouraud's Dextrose
MIC (mcg/ml) after 48 hours

[2] = system: Aspergillus niger 6275; assay: In vitro antifungal activity, dilutions in Sabouraud's Dextrose Broth (Table IV); type: cell-based; settings: after 96 hours
Procedure: as §1
(§2) In vitro Antifungal Activity of 2-amioalkyl-3-phenylindoles
(§3) of the formula I against Dermetophytes and Aspergillus.
(§4) Dilutions in Sabouraud's Dextrose Broth.

[3] = system: Aspergillus sp. No. 3; assay: as above; type: cell-based; settings: after 96 hours
Procedure: as §1, §2, §3, §4

[4] = system: Epidermophyton floccosum; assay: as above; type: cell-based; settings: after 96 hours
Procedure: as §1, §2, §3, §4

[5] = system: Microsporum distortum; assay: as above; type: cell-based; settings: after 96 hours
Procedure: as §1, §2, §3, §4

[6] = system: Microsporum nanum; assay: as above; type: cell-based; settings: Nannizzia nana; after 96 hours
Procedure: as §1, §2, §3, §4

[7] = system: Trichophyton ascoides; assay: as above; type: cell-based; settings: after 96 hours
Procedure: as §1, §2, §3, §4

[8] = system: Trichophyton discoides; assay: as above; type: cell-based; settings: after 96 hours
Procedure: as §1, §2, §3, §4

[9] = system: Trichophyton ferrugineum; assay: as above; type: cell-based; settings: Microsporum ferrugineum; after 96 hours
Procedure: as §1, §2, §3, §4

[10] = system: Trichophyton gallinae; assay: as above; type: cell-based; settings: after 96 hours
Procedure: as §1, §2, §3, §4

[11] = system: Trichophyton megninii; assay: as above; type: cell-based; settings: Trichophyton rubrum; after 96 hours
Procedure: as §1, §2, §3, §4

[12] = system: Trichophyton mentagrophytes; assay: as above; type: cell-based; settings: 96 h
Procedure: as §1, §2, §3, §4

[13] = system: Trichophyton rubrum; assay: as above; type: cell-based; settings: 96 h
Procedure: as §1, §2, §3, §4

[14] = system: Trichophyton schoenleinii; assay: as above; type: cell-based; settings: 96 h
Procedure: as §1, §2, §3, §4

[15] = system: Trichophyton soudenense; assay: as above; type: cell-based; settings: after 96 hours
Procedure: as §1, §2, §3, §4

[16] = system: Trichophyton tonsurans; assay: as above; type: cell-based; settings: after 96 hours
Procedure: as §1, §2, §3, §4

[17] = system: Tricoderm sp.; assay: as above; type: cell-based; settings: after 96 hours
Procedure: as §1, §2, §3, §4

[18] = Acute toxicity in mice (Table V); settings: mouse, in vivo
Procedure: as §1
Acute Toxicity of 2-aminoalkyl-3-phenylindoles of the formula I

[19] = system: Trychomonas vaginalis; assay: In vitro Anti-Trichomonal activity (Table VII); type: cell-based
Procedure: as §1
In vitro Anti-Trichomonal Activity of some 2-aminoalkyl-3-
phenyl-indenes of formula II.

SMILES: NCc1[nH]c2ccc(Cl)cc2c1-c1ccccc1 [C, 2-(1-aminomethyl)-5-chloro-3-phenylindole]
- MIC ([1]; strain Frazier, after 48 hours): 75 µg/mL (≈ 292 µM)
- MIC ([1]; strain Fulcher, after 48 hours): 75 µg/mL (≈ 292 µM)
- MIC ([1]; strain Gay, after 48 hours): 75 µg/mL (≈ 292 µM)
- MIC ([1]; strain Hons, after 48 hours): 75 µg/mL (≈ 292 µM)
- MIC ([1]; strain Johnson, after 48 hours): 75 µg/mL (≈ 292 µM)
- MIC ([1]; strain Kenndy 2, after 48 hours): 75 µg/mL (≈ 292 µM)
- MIC ([1]; strain Kennedy 1, after 48 hours): 37.5 µg/mL (≈ 146 µM)
- MIC ([1]; strain Lehtman, after 48 hours): 75 µg/mL (≈ 292 µM)
- MIC ([1]; strain Lusk, after 48 hours): 75 µg/mL (≈ 292 µM)
- MIC ([1]; strain Merkel, after 48 hours): 75 µg/mL (≈ 292 µM)
- MIC ([1]; strain Newcomb, after 48 hours): 37.5 µg/mL (≈ 146 µM)
- MIC ([1]; strain Sherod, after 48 hours): 75 µg/mL (≈ 292 µM)
- MIC ([1]; strain Shurelli, after 48 hours): 75 µg/mL (≈ 292 µM)
- MIC ([1]; strain Sparks, after 48 hours): 75 µg/mL (≈ 292 µM)
- MIC ([1]; strain Tyner, after 48 hours): 75 µg/mL (≈ 292 µM)
- MIC [2]: 17.5 µg/mL (≈ 68.2 µM)
- MIC [3]: 17.5 µg/mL (≈ 68.2 µM)
- MIC [4]: 17.5 µg/mL (≈ 68.2 µM)
- MIC [5]: 7.5 µg/mL (≈ 29.2 µM)
- MIC [6]: 3 µg/mL (≈ 11.7 µM)
- MIC [7]: 7.5 µg/mL (≈ 29.2 µM)
- MIC [8]: 17.5 µg/mL (≈ 68.2 µM)
- MIC [9]: 17.5 µg/mL (≈ 68.2 µM)
- MIC [10]: 37.5 µg/mL (≈ 146 µM)
- MIC [11]: 7.5 µg/mL (≈ 29.2 µM)
- MIC ([12]; strain A, after 96 hours): 7.5 µg/mL (≈ 29.2 µM)
- MIC ([12]; strain B, after 96 hours): 7.5 µg/mL (≈ 29.2 µM)
- MIC ([12]; strain C, after 96 hours): 3 µg/mL (≈ 11.7 µM)
- MIC ([12]; strain H377, after 96 hours): 17.5 µg/mL (≈ 68.2 µM)
- MIC ([12]; strain Young, after 96 hours): 7.5 µg/mL (≈ 29.2 µM)
- MIC ([13]; strain 3, after 96 hours): 17.5 µg/mL (≈ 68.2 µM)
- MIC ([13]; strain 360, after 96 hours): 7.5 µg/mL (≈ 29.2 µM)
- MIC ([13]; strain Blehl, after 96 hours): 37.5 µg/mL (≈ 146 µM)
- MIC ([13]; strain Haggerty, after 96 hours): 7.5 µg/mL (≈ 29.2 µM)
- MIC ([14]; strain 2, after 96 hours): 3 µg/mL (≈ 11.7 µM)
- MIC ([14]; strain not given, after 96 hours): 17.5 µg/mL (≈ 68.2 µM)
- MIC [15]: 17.5 µg/mL (≈ 68.2 µM)
- MIC [16]: 7.5 µg/mL (≈ 29.2 µM)
- MIC [17]: 7.5 µg/mL (≈ 29.2 µM)
- LD50 ([18]; Oral): > 1000 mg/kg
- LD50 ([18]; ip, I.P.): 100 mg/kg
- LD50 ([18]; sc, S.C.): 600 mg/kg
- IC50 ([19]; 50% suppression, read-out: Minimal Level to Produce 50% Suppression): 30 µg/mL (≈ 117 µM)
- IC90 ([19]; 90% suppression, read-out: Minimal Level to Produce 90% Suppression): 38 µg/mL (≈ 148 µM)
